The structures appear in SMILES notation.

This assay addresses Casein kinase 2 (Homo sapiens, UniProt P67870+P68400+P19784+Q8NEV1). Description: Inhibition of CK2 (unknown origin). The format is protein assay.

`COc1cc2c(cc1O)C[C@H]1c3c(cc(O)c(OC)c3-2)CCN1C` [BOLDINE] had a concentration for half-maximal inhibition (IC50) of 700 nM.

For the origin of these results see ChEMBL document CHEMBL4480438, “Inhibitory Properties of ATP-Competitive Coumestrol and Boldine Are Correlated to Different Modulations of CK2 Flexibility” (J Nat Prod, 2019).
